Laboratory results taken from ChEMBL document CHEMBL3817808, “Enlarging the chemical space of anti-leishmanials: a structureactivity relationship study of peptoids against Leishmania mexicana, a causative agent of cutaneous leishmaniasis” (Medchemcomm, 2016).
Non-standard residues stand in square brackets, D forms with d. Residues, ends and D or L forms follow the SMILES beside them. Gly(N-2-aminoethyl) = NCCNCC(=O)O; Nphe = O=C(O)CNCc1ccccc1

Assays:
[1] = test system: Leishmania mexicana; experiment: Antileishmanial activity against axenic amastigote form of Leishmania mexicana MNYC/BZ/62/M379 assessed as parasite viability measured after 1 hr by alamarBlue staining based fluorescence analysis; assay type: functional; settings: MNYC/BZ/62/M379, 1 h, read-out: ED50 (the source's name)
[2] = test system: Leishmania mexicana; experiment: Antileishmanial activity against Leishmania mexicana MNYC/BZ/62/M379 amastigotes infected in mouse RAW264.7 cells assessed as parasite viability measured after 24 hrs by alamarBlue staining based fluorescence analysis; assay type: functional
[3] = test system: Leishmania mexicana; experiment: Antileishmanial activity against Leishmania mexicana MNYC/BZ/62/M379 promastigotes assessed as parasite viability measured after 1 hr by alamarBlue staining based fluorescence analysis; assay type: functional; settings: MNYC/BZ/62/M379, 1 h, read-out: ED50 (the source's name)
[4] = Cytotoxicity against mouse RAW264.7 cells measured after 24 hrs by alamarBlue staining based fluorescence analysis; assay type: cell-based; settings: read-out: ED50

| SMILES | EC50 [1] | ED50 [2] | EC50 [3] | CC50 at 24 h [4] |
| --- | --- | --- | --- | --- |
| NCCNCC(=O)N(CC(=O)N(CC(=O)N(CCN)CC(=O)N(CC(=O)N(CC(=O)N(CCN)CC(=O)N(CC(=O)N(CC(=O)N(CCN)CC(=O)N(CC(=O)N(CC(N)=O)Cc1ccccc1)Cc1ccccc1)Cc1ccccc1)Cc1ccccc1)Cc1ccccc1)Cc1ccccc1)Cc1ccccc1)Cc1ccccc1 (H-[Gly(N-2-aminoethyl)][Nphe][Nphe][Gly(N-2-aminoethyl)][Nphe][Nphe][Gly(N-2-aminoethyl)][Nphe][Nphe][Gly(N-2-aminoethyl)][Nphe][Nphe]-NH2) | > 100 µM | >5 µM | 21 µM | > 5 µM |
| CC(c1ccccc1)N(CC(=O)N(CCCCN)CC(=O)N(CC(=O)N(CC(=O)N(CCCCN)CC(=O)N(CC(=O)N(CC(N)=O)[C@@H](C)c1ccccc1)Cc1ccc(F)cc1)C(C)c1ccccc1)Cc1ccc(F)cc1)C(=O)CN(Cc1ccc(F)cc1)C(=O)CNCCCCN (single isomer, unassigned) | > 100 µM |  | 13 µM |  |
| CC(C)CCN(CC(=O)N(CC(=O)N(CCCCN)CC(=O)N(CCC(C)C)CC(=O)N(CC(=O)N(CCCCN)CC(=O)N(CCC(C)C)CC(=O)N(CC(=O)N(CCCCN)CC(=O)N(CCC(C)C)CC(=O)N(CC(N)=O)[C@@H](C)c1ccccc1)C(C)c1ccccc1)C(C)c1ccccc1)C(C)c1ccccc1)C(=O)CNCCCCN (single isomer, unassigned) | > 100 µM |  | 12 µM |  |
| CC(c1ccccc1)N(CC(=O)N(CCCCN)CC(=O)N(CC(=O)N(CC(=O)N(CCCCN)CC(=O)N(CC(=O)N(CC(N)=O)[C@@H](C)c1ccccc1)[C@@H](C)c1ccccc1)Cc1ccc(F)cc1)Cc1ccc(F)cc1)C(=O)CN(C(=O)CN(CCCCN)C(=O)CN(Cc1ccc(F)cc1)C(=O)CN(Cc1ccc(F)cc1)C(=O)CNCCCCN)[C@@H](C)c1ccccc1 (single isomer, unassigned) | 21 µM | >5 µM | 6 µM | 5 µM |
| CC(C)CCN(CC(=O)N(CC(N)=O)C(C)c1ccccc1)C(=O)CN(CCCCN)C(=O)CN(C(=O)CN(CCC(C)C)C(=O)CN(CCCCN)C(=O)CN(C(=O)CN(CCC(C)C)C(=O)CNCCCCN)[C@@H](C)c1ccccc1)[C@@H](C)c1ccccc1 (single isomer, unassigned) | > 100 µM |  | 52 µM |  |
| CC(c1ccccc1)N(CC(=O)N(CCCCN)CC(=O)N(CC(=O)N(CC(=O)N(CCCCN)CC(=O)N(CC(=O)N(CC(=O)N(CCCCN)CC(=O)N(CC(=O)N(CC(N)=O)[C@@H](C)c1ccccc1)Cc1ccc(F)cc1)C(C)c1ccccc1)Cc1ccc(F)cc1)C(C)c1ccccc1)Cc1ccc(F)cc1)C(=O)CN(Cc1ccc(F)cc1)C(=O)CNCCCCN (single isomer, unassigned) | 27 µM |  | 8 µM |  |
| CC(c1ccccc1)N(CC(=O)N(CCN)CC(=O)N(CC(=O)N(CC(=O)N(CCN)CC(=O)N(CC(=O)N(CC(N)=O)[C@@H](C)c1ccccc1)[C@@H](C)c1ccccc1)C(C)c1ccccc1)[C@@H](C)c1ccccc1)C(=O)CN(C(=O)CNCCN)C(C)c1ccccc1 (single isomer, unassigned) | > 100 µM |  | 10 µM |  |
| CC(c1ccccc1)N(CC(=O)N(CCCCN)CC(=O)N(CC(=O)N(CC(=O)N(CCCCN)CC(=O)N(CC(=O)N(CC(N)=O)[C@@H](C)c1ccccc1)[C@@H](C)c1ccccc1)Cc1ccc(F)cc1)Cc1ccc(F)cc1)C(=O)CN(C(=O)CNCCCCN)[C@@H](C)c1ccccc1 (single isomer, unassigned) | > 100 µM |  | 13 µM |  |
| CCCCCNCC(=O)N(CC(=O)N(CC(=O)N(CCCCC)CC(=O)N(CC(=O)N(CC(=O)N(CCCCN)CC(=O)N(CC(=O)N(CC(=O)N(CCCCN)CC(=O)N(CC(=O)N(CC(N)=O)[C@@H](C)c1ccccc1)[C@@H](C)c1ccccc1)C(C)c1ccccc1)[C@@H](C)c1ccccc1)C(C)c1ccccc1)[C@@H](C)c1ccccc1)C(C)c1ccccc1)[C@@H](C)c1ccccc1 (single isomer, unassigned) | 16 µM | 1.6 µM | 11 µM | 1.7 µM |
| C[C@H](c1ccccc1)N(CC(N)=O)C(=O)CN(C(=O)CN(CCCCN)C(=O)CN(C(=O)CN(C(=O)CN(CCCCN)C(=O)CN(C(=O)CN(C(=O)CNCCCCN)[C@H](C)c1ccccc1)[C@@H](C)c1ccccc1)[C@H](C)c1ccccc1)[C@@H](C)c1ccccc1)[C@H](C)c1ccccc1 (stereo in doubt) | > 100 µM |  | 15 µM |  |
| C[C@H](c1ccccc1)N(CC(=O)N(CCN)CC(=O)N(CC(=O)N(CC(=O)N(CCN)CC(=O)N(CC(=O)N(CC(=O)N(CCN)CC(=O)N(CC(=O)N(CC(N)=O)[C@@H](C)c1ccccc1)[C@@H](C)c1ccccc1)[C@H](C)c1ccccc1)[C@@H](C)c1ccccc1)[C@H](C)c1ccccc1)[C@@H](C)c1ccccc1)C(=O)CN(C(=O)CNCCN)[C@H](C)c1ccccc1 (stereo in doubt) | 17 µM | >5 µM | 7 µM | 3 µM |
| C[C@@H]1[C@H](O)[C@@H](C)/C=C/C=C/C=C/C=C/C=C/C=C/C=C/[C@H](O[C@@H]2O[C@H](C)[C@@H](O)[C@H](N)[C@@H]2O)C[C@@H]2O[C@](O)(C[C@@H](O)C[C@@H](O)[C@H](O)CC[C@@H](O)C[C@@H](O)CC(=O)O[C@H]1C)C[C@H](O)[C@H]2C(=O)O [AMPHOTERICIN B] | < 2 µM | 0.195 µM | < 2 µM | > 5 µM |
